# In PubChem BioAssay (NCI):
#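 Values below derive from 48-hour exposures of cells grown in 96-well plates, with endpoints linearly interpolated between the two concentrations bracketing the appropriate inhibition level. TGI: total growth inhibition.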 Where a SMILES comes first, the peptide text is derived from it. The star is where a group is joined. Boc = CC(C)(C)OC(=O)*
# Legend:
# Experiment in all cases: DTP human tumour cell line panel, 48 h
# [1] = system: SNB-75 CNS
# [2] = system: HOP-92 NSCLC
# [3] = system: SK-MEL-5 melanoma
# [4] = system: UO-31 renal
# [5] = system: OVCAR-8 ovarian
# [6] = system: DU-145 prostate
# [7] = system: MDA-MB-231 breast
# [8] = system: UACC-62 melanoma
# [9] = system: SF-539 CNS
# [10] = system: RPMI-8226 leukemia
SMILES,TGI [1] [µM],TGI [2] [µM],TGI [3] [µM],TGI [4] [µM],TGI [5] [µM],TGI [6] [µM],TGI [7] [µM],TGI [8] [µM],TGI [9] [µM],TGI [10] [µM]
COc1cc2c(OC)c3cc(C)oc(=O)c3c(O)c2c(O)c1-c1c(OC)cc2c(OC)c3cc(C)oc(=O)c3c(O)c2c1O,> 100,55.9,35.8,35.9,30,> 100,36.6,41,35.7,40.2
O=C1NC(=S)NC1C(Cc1ccccc1)c1ccco1 (centres undefined),> 100,> 100,> 100,> 100,> 100,> 100,> 100,,> 100,> 100
CNC(=O)CNC(=O)C(NC(=O)CNC(=O)C1CCCN1C(=O)C(C)NC(=O)C(NC(=O)OC(C)(C)C)C(C)C)C(C)C (centres undefined) (Boc-VAPGVG-NHMe; configuration not given here),> 100,> 100,,> 100,> 100,> 100,> 100,> 100,> 100,> 100
CCCc1c(O)c2ccccc2[nH]c1=O,> 100,> 100,> 100,> 100,> 100,> 100,> 100,,> 100,> 100
Cc1ccc(NC(=O)C23CC4CC(CC(C4)C2)C3)c(C(=O)NNC(=O)c2ccc(Cl)cc2)c1,,33.5,42.6,37,> 100,> 100,50.3,53.2,49.5,41.5
O=C(c1ccccc1)c1ccc(N2C(=O)/C(=C/c3cccc([N+](=O)[O-])c3)N=C2c2ccccc2)c(N2C(=O)/C(=C/c3cccc([N+](=O)[O-])c3)N=C2c2ccccc2)c1,81.6,> 100,18.9,> 100,> 100,> 100,> 100,> 100,> 100,> 100
NC(=S)Nc1c(S(N)(=O)=O)cc(S(N)(=O)=O)c(Cl)c1Cl,> 100,> 100,> 100,> 100,> 100,> 100,> 100,> 100,> 100,> 100
O=C(CC(O)(C(F)(F)Cl)C(F)(F)Cl)CC(O)(C(F)(F)Cl)C(F)(F)Cl,9.7,3.04,4.62,> 10,> 10,> 10,5.29,> 10,> 10,4.84
Cc1ccc(S(=O)(=O)NN=C2C(C)CC(C(C)(C)C)CC2C)cc1 (centres undefined),37.8,30.1,31.3,40.8,59.8,39.1,85.9,93.2,> 100,52.8
Cc1ccc(C2=NN=C3C(c4ccccc4)=Nc4ccccc4N3C2)cc1,,> 72.9,32.8,> 42,> 100,32.3,> 100,> 100,> 100,> 73
Cc1cc(C)c2c(=O)cc(-c3ccccc3)[nH]c2c1,19.3,59.5,30.6,27.8,46.9,98.4,39.7,28.7,8.11,22.8
CCOC(=O)C(=NN(C)c1ncccc1N)C(=O)OCC,> 100,46.2,> 100,> 100,> 100,> 100,83.3,> 100,69.8,> 100
CCOc1ccc(-n2c(=O)c3nn4c(=O)n(-c5ccc(OCC)cc5)c(=O)c4nn3c2=O)cc1,75.7,> 100,> 100,> 100,> 100,> 100,> 100,> 100,> 100,> 100
Cn1c(=O)oc2cc(C(=O)CN3CCN(Cc4ccc5c(c4)OCO5)CC3)c(Cl)cc21,> 100,,> 100,> 100,,> 100,> 100,> 100,> 100,> 100
COc1cc(Br)cc2c1O[C@H]1C(=O)CC3CC21CCN3C (some centres undefined),,,> 100,> 100,71.7,,,> 100,> 100,63.4
Cc1nn(C(=O)c2ccc(Cl)cc2)c2c1C(c1ccccc1)SC(N)=N2 (centres undefined),> 10,> 10,> 10,,> 10,> 10,> 10,> 10,> 10,> 10
N=C(N)SCCSC(=N)N,> 100,> 100,> 100,> 100,> 100,> 100,> 100,> 100,,> 100
CCc1nc2c(n1CC)C(=O)c1ccccc1C2=O,> 100,> 100,> 10,,> 100,> 100,49.4,> 100,> 100,> 100
CCCCN(CCCC)C1(c2cc3ccccc3s2)CCCCC1,30.5,25.5,40.7,32.9,34.4,30,30.2,31.1,34.9,
N#Cc1nc(/C=C/c2cccs2)oc1N,> 100,> 100,> 100,63.6,> 100,> 100,> 100,> 100,,> 100
Clc1ccc(-c2cn3c(nc4ccccc43)c(/C=C/c3cccs3)n2)cc1,> 100,> 100,> 100,> 100,,> 100,> 100,> 100,> 100,> 100
CC(=O)OC12c3ccccc3C(c3ccccc31)C1C(=O)N(c3ccccc3O)C(=O)C12 (centres undefined),> 100,,> 100,> 100,> 100,> 100,> 100,,> 100,> 100
Cc1ccc(OC2CC(n3cnc4c(=O)[nH]c(Br)nc43)OC2Oc2ccc(C)cc2)cc1 (centres undefined),,45.9,58.7,38.4,66.5,53.9,46.9,53.7,50.1,87.9

SMILES,TGI [1] [µM],TGI [2] [µM],TGI [3] [µM],TGI [4] [µM],TGI [5] [µM],TGI [6] [µM],TGI [7] [µM],TGI [8] [µM],TGI [9] [µM],TGI [10] [µM]
CO[C@@H]1C[C@H]2[C@@H]3CC[C@H]([C@@H](C)COC(C)=O)[C@@]3(C)CC[C@@H]2[C@@]2(C)CC[C@H]3C[C@]312,33.5,35.2,15.2,32.4,24.7,27.8,24.3,,37.3,29.9
CC(=O)c1cc2sc3ccccc3c2[nH]1,,> 100,> 100,> 100,> 100,> 100,> 100,> 100,> 100,> 100
Cc1c(/C=N/NC(=S)Nc2ccc([N+](=O)[O-])cc2)c(=O)n(-c2ccccc2)n1C,26.3,25.5,> 100,49.2,31.6,,49.2,33.7,30,> 100
CC(C)C1=CC23CCC4C(C)(C(=O)O)CCCC4(C)C2CC1C1C(=O)N(c2ccc(N4C(=O)C5C6CC7C8(C)CCCC(C)(C(=O)O)C8CCC7(C=C6C(C)C)C5C4=O)cc2)C(=O)C13 (centres undefined),,28.5,19.2,34,16.5,16.6,21.5,,22.4,80.3
CC(C)(C)OC(=O)CCC1NC(=O)[C@@H]2Cc3c([nH]c4ccccc34)C(c3ccccc3)N2C1=O (some centres undefined),,67.7,37.9,> 100,> 100,> 100,42.1,35.7,,> 100
CN1CCC2(CC1)C(=O)N(NC(N)=O)C(=O)C2c1ccccc1 (centres undefined),> 100,,> 100,> 100,> 100,> 100,> 100,> 100,> 100,> 100
CN(NC(=O)c1ccc(Cl)cc1)C1=NCCCCN1,> 100,> 100,> 100,> 100,> 100,,> 100,> 100,> 100,> 100
Cc1ccc(C)n1-n1c(Cc2ccc(Cl)cc2)n[nH]c1=O,> 100,,> 100,> 100,> 100,> 100,> 100,> 100,,> 100
O=C(OC1C#CCSCC#C/C=C\1)c1cnc2ccccc2n1 (centres undefined),> 100,> 100,,> 100,> 100,> 100,> 100,> 100,> 100,
CNC(=O)Nn1c(SC)nc2ccccc21,,> 100,> 100,> 100,> 100,> 100,> 100,> 100,,> 100
CCOC(=O)c1ccc(N(C)Cc2cnc3nc(N)nc(N)c3n2)cc1,54,,> 100,72.1,29.2,> 100,81.7,33.8,33.9,> 100
CC(=O)OC12c3ccccc3C(c3ccccc31)C1C(=O)N(Nc3ccccc3)C(=O)C12 (centres undefined),> 100,,> 100,> 100,> 100,> 100,> 100,,> 100,> 100
CNC(=S)N/N=C(\C)c1cc(OC)c(OC)cc1O,> 100,,> 100,> 100,> 100,> 100,> 100,> 100,> 100,> 100
CC1(C)OC[C@@H]([C@H](C=O)OCc2ccccc2)O1,> 100,> 100,> 100,> 100,> 100,> 100,> 100,> 100,,> 100
COCN1C(=O)[C@@H]2CCCN2C(=O)c2ccc(Cl)cc21,> 100,> 100,,> 100,> 100,> 100,> 100,> 100,,> 100
C=CC(C)(C)c1c(OC)oc2ccc(OC)c(C)c2c1=O,> 100,,> 100,> 100,> 100,> 100,> 100,> 100,> 100,> 100
COc1cc(C2SC(N)=Nc3c2c(C)nn3C(=O)Cc2ccccc2)cc(OC)c1OC (centres undefined),> 100,,> 100,> 100,> 100,> 100,> 100,> 100,> 100,> 100
CCOC(=O)C(=O)N=Nc1c(O)[nH]c2ccccc12,> 100,,> 100,> 100,> 100,> 100,> 100,> 100,,> 100
CC(=O)OCc1cc(OC(C)=O)c2cc3c(OC(C)=O)cccc3c(OC(C)=O)c2c1,45.2,52.2,23.7,41.2,35.4,43.5,58.9,38.7,,44.6
CC1NC(=O)c2c(-c3ccccc3)nn(-c3ccccc3)c2NC1=O (centres undefined),> 100,> 100,> 100,> 100,> 100,> 100,> 100,> 100,,> 100
COc1ccc(/C=C2\N=C(N3CCOCC3)NC2=O)cc1,> 100,> 100,,> 100,> 100,> 100,> 100,> 100,> 100,> 100
CN1CCN(Cn2nc(-c3ccccc3)n(/N=C/c3ccc(-c4ccc(Cl)cc4Cl)o3)c2=S)CC1,,25.1,68.9,29,25.8,21,29.9,,41,75.6
